Data published in US9932637B2, “Genetic polymorphisms associated with cardiovascular disorders and drug response, methods of detection and uses thereof” (CELERA CORPORATION, priority 2003, dated 2018).

System: patients with prior myocardial infarction (CARE study)
Test: CARE: association of SNPs with pravastatin treatment in cardiovascular events prevention (logistic regression, odds ratio pravastatin vs placebo by genotype; Table 8)
Format: in vivo, human
Conditions: for Prava vs. Placebo Odds Ratio, 1 Rare Alleles / Prava vs. Placebo Odds Ratio, 2 Rare Alleles / Non-fatal MI (def & prob), n/total (%) / Fatal/Non-fatal MI (def & prob), n/total (%) / Fatal CHD/Definite Non-fatal MI, n/total (%) / Total Coronary Heart Disease Events, n/total (%) / Fatal/Non-fatal Atherosclerotic CV Disease, n/total (%) / Hosp. for Cardiovascular Disease, n/total (%) / Total Cardiovascular Disease Events, n/total (%) / Prava vs. Placebo Odds Ratio, 0 Rare Alleles: All Patients; for Non-fatal MI (def & prob), n/total (%) / Fatal/Non-fatal MI (def & prob), n/total (%) / Fatal CHD/Definite Non-fatal MI, n/total (%) / Total Coronary Heart Disease Events, n/total (%) / Fatal/Non-fatal Atherosclerotic CV Disease, n/total (%) / Hosp. for Cardiovascular Disease, n/total (%) / Total Cardiovascular Disease Events, n/total (%): Prava
From the text: In order to identify genetic markers associated with acute coronary events (e.g. MI, stroke, unstable angina, congestive heart failure, etc.) or response to statin treatment for the prevention of coronary events, samples from the Cholesterol and Recurrent Events (CARE) study (a randomized multicentral double-blinded trial on secondary prevention of acute coronary events with pravastatin) (Sacks et al., 1991, Am. J. Cardiol. 68: 1436-1446) were genotyped. A well-documented myocardial infarction (MI) was one of the enrollment criteria for entry into the CARE study. Patients were enrolled in the CARE trial from 80 participating study centers. […] Patients were randomized to receive either 40 mg of pravastatin once daily or a matching placebo. The primary endpoint of the trial was death from coronary heart disease and the median duration of follow-up was 5.0 years (range, 4.0 to 6.2 years). […] Secondary endpoints of other related cardiovascular or metabolic disease events, and changes in clinical variables were also recorded in pravastatin-treated and placebo groups. All individuals included in the study had signed a written informed consent form and the study protocol was approved by the respective Institutional Review Boards (IRBs).
For genotyping SNPs in CARE patient samples, DNA was extracted from blood samples using conventional DNA extraction methods such as the QIA-amp kit from Qiagen. Genotypes were obtained on an ABI PRISM® 7900HT Sequence Detection PCR system (Applied Biosystems, Foster City, Calif.) by kinetic allele-specific PCR, similar to the method described by Germer et al. (Germer S., Holland M. J., Higuchi R. 2000, Genome Res. 10: 258-266).
Statistical analysis for association of SNPs with pravastatin treatment in cardiovascular events prevention (Table 8) was carried out using an overall logistic regression model that included an intercept, a parameter for the effect of a genotype containing two rare alleles versus a genotype containing no rare alleles, a parameter for the effect of a genotype containing one rare allele versus a genotype containing no rare alleles, a parameter for the effect of use of pravastatin versus the use of placebo, and parameters for the interaction effects between SNP genotypes and pravastatin use. The test of the overall model is a chi-square test with two degrees of freedom for analyses containing all three genotypes, and one degree of freedom for analyses containing two genotypes.
Effect sizes were estimated through odds ratios (pravastatin group versus placebo) for carriers of each genotype (groups of 0, 1, and 2 minor allele carriers). The effect was considered to be significant if p-value for testing whether any of the interactions between SNP genotypes and pravastatin use were <0.05. […] Odds ratios less than one indicate that the specific SNP allele has a protective effect and odds ratios greater than one indicate that the specific SNP allele has an adverse effect.

[1] = IL1A hCV9546471, Total Mortality
[2] = IL1RN hCV8737990, 2 Rare Alleles, n/total 20/121
[3] = IL1RN hCV8737990, Fatal CHD/Definite Non-fatal MI
[4] = IL1RN hCV8737990, Fatal/Non-fatal Atherosclerotic CV Disease
[5] = IL1RN hCV8737990, Fatal/Non-fatal MI (def & prob)
[6] = IL1RN hCV8737990, Hosp. for Cardiovascular Disease
[7] = IL1RN hCV8737990, Non-fatal MI (def & prob)
[8] = IL1RN hCV8737990, Total Cardiovascular Disease Events
[9] = IL1RN hCV8737990, Total Coronary Heart Disease Events
[10] = IL6ST hCV16170435, 2 Rare Alleles, n/total 19/37
[11] = IL6ST hCV16170435, Hosp. for Cardiovascular Disease
[12] = IL6ST hCV16170435, Total Cardiovascular Disease Events
[13] = IL9 hCV3275199, All Patients, 0 Rare Alleles, Prava arm

CC[C@H](C)C(=O)O[C@H]1C[C@H](O)C=C2C=C[C@H](C)[C@H](CC[C@@H](O)C[C@@H](O)CC(=O)O)[C@H]21 [pravastatin]
Prava vs. Placebo Odds Ratio, 1 Rare Alleles [1]: 0.60
Prava vs. Placebo Odds Ratio, 2 Rare Alleles [1]: 0.29
Non-fatal MI (def & prob), n/total (%) (IL1RN hCV8737990, 0 Rare Alleles, n/total 68/809): (8.4%)
Fatal/Non-fatal MI (def & prob), n/total (%) (IL1RN hCV8737990, 0 Rare Alleles, n/total 76/809): (9.4%)
Fatal CHD/Definite Non-fatal MI, n/total (%) (IL1RN hCV8737990, 0 Rare Alleles, n/total 80/809): (9.9%)
Total Coronary Heart Disease Events, n/total (%) (IL1RN hCV8737990, 0 Rare Alleles, n/total 228/809): (28.2%)
Fatal/Non-fatal Atherosclerotic CV Disease, n/total (%) (IL1RN hCV8737990, 0 Rare Alleles, n/total 260/809): (32.1%)
Hosp. for Cardiovascular Disease, n/total (%) (IL1RN hCV8737990, 0 Rare Alleles, n/total 315/809): (38.9%)
Total Cardiovascular Disease Events, n/total (%) (IL1RN hCV8737990, 0 Rare Alleles, n/total 325/809): (40.2%)
Fatal CHD/Definite Non-fatal MI, n/total (%) (IL1RN hCV8737990, 1 Rare Allele, n/total 44/585): (7.5%)
Non-fatal MI (def & prob), n/total (%) (IL1RN hCV8737990, 1 Rare Allele, n/total 45/585): (7.7%)
Fatal/Non-fatal MI (def & prob), n/total (%) (IL1RN hCV8737990, 1 Rare Allele, n/total 49/585): (8.4%)
Total Coronary Heart Disease Events, n/total (%) (IL1RN hCV8737990, 1 Rare Allele, n/total 167/585): (28.5%)
Fatal/Non-fatal Atherosclerotic CV Disease, n/total (%) (IL1RN hCV8737990, 1 Rare Allele, n/total 193/585): (33.0%)
Hosp. for Cardiovascular Disease, n/total (%) (IL1RN hCV8737990, 1 Rare Allele, n/total 232/585): (39.7%)
Total Cardiovascular Disease Events, n/total (%) (IL1RN hCV8737990, 1 Rare Allele, n/total 239/585): (40.9%)
Fatal CHD/Definite Non-fatal MI, n/total (%) (IL1RN hCV8737990, 2 Rare Alleles, n/total 15/121): (12.4%)
Fatal/Non-fatal MI (def & prob), n/total (%) [2]: (16.5%)
Non-fatal MI (def & prob), n/total (%) [2]: (16.5%)
Total Coronary Heart Disease Events, n/total (%) (IL1RN hCV8737990, 2 Rare Alleles, n/total 45/121): (37.2%)
Fatal/Non-fatal Atherosclerotic CV Disease, n/total (%) (IL1RN hCV8737990, 2 Rare Alleles, n/total 51/121): (42.1%)
Hosp. for Cardiovascular Disease, n/total (%) (IL1RN hCV8737990, 2 Rare Alleles, n/total 60/121): (49.6%)
Total Cardiovascular Disease Events, n/total (%) (IL1RN hCV8737990, 2 Rare Alleles, n/total 61/121): (50.4%)
Prava vs. Placebo Odds Ratio, 0 Rare Alleles [3]: 0.75
Prava vs. Placebo Odds Ratio, 1 Rare Alleles [3]: 0.52
Prava vs. Placebo Odds Ratio, 2 Rare Alleles [3]: 1.89
Prava vs. Placebo Odds Ratio, 0 Rare Alleles [4]: 0.75
Prava vs. Placebo Odds Ratio, 1 Rare Alleles [4]: 0.66
Prava vs. Placebo Odds Ratio, 2 Rare Alleles [4]: 1.67
Prava vs. Placebo Odds Ratio, 0 Rare Alleles [5]: 0.66
Prava vs. Placebo Odds Ratio, 1 Rare Alleles [5]: 0.51
Prava vs. Placebo Odds Ratio, 2 Rare Alleles [5]: 1.70
Prava vs. Placebo Odds Ratio, 0 Rare Alleles [6]: 0.77
Prava vs. Placebo Odds Ratio, 1 Rare Alleles [6]: 0.64
Prava vs. Placebo Odds Ratio, 2 Rare Alleles [6]: 1.37
Prava vs. Placebo Odds Ratio, 0 Rare Alleles [7]: 0.68
Prava vs. Placebo Odds Ratio, 1 Rare Alleles [7]: 0.52
Prava vs. Placebo Odds Ratio, 2 Rare Alleles [7]: 1.70
Prava vs. Placebo Odds Ratio, 0 Rare Alleles [8]: 0.75
Prava vs. Placebo Odds Ratio, 1 Rare Alleles [8]: 0.65
Prava vs. Placebo Odds Ratio, 2 Rare Alleles [8]: 1.37
Prava vs. Placebo Odds Ratio, 0 Rare Alleles [9]: 0.74
Prava vs. Placebo Odds Ratio, 1 Rare Alleles [9]: 0.67
Prava vs. Placebo Odds Ratio, 2 Rare Alleles [9]: 1.84
Hosp. for Cardiovascular Disease, n/total (%) (IL6ST hCV16170435, 0 Rare Alleles, n/total 450/1131): (39.8%)
Total Cardiovascular Disease Events, n/total (%) (IL6ST hCV16170435, 0 Rare Alleles, n/total 465/1131): (41.1%)
Hosp. for Cardiovascular Disease, n/total (%) (IL6ST hCV16170435, 1 Rare Allele, n/total 139/340): (40.9%)
Total Cardiovascular Disease Events, n/total (%) (IL6ST hCV16170435, 1 Rare Allele, n/total 142/340): (41.8%)
Hosp. for Cardiovascular Disease, n/total (%) [10]: (51.4%)
Total Cardiovascular Disease Events, n/total (%) [10]: (51.4%)
Prava vs. Placebo Odds Ratio, 0 Rare Alleles [11]: 0.75
Prava vs. Placebo Odds Ratio, 1 Rare Alleles [11]: 0.72
Prava vs. Placebo Odds Ratio, 2 Rare Alleles [11]: 2.49
Prava vs. Placebo Odds Ratio, 0 Rare Alleles [12]: 0.75
Prava vs. Placebo Odds Ratio, 1 Rare Alleles [12]: 0.69
Prava vs. Placebo Odds Ratio, 2 Rare Alleles [12]: 2.49
Fatal/Nonfatal MI (def & prob), n/total (%) [13]: (10.8%)
MI (Fatal/Nonfatal), n/total (%) [13]: (11.1%)
